Patent US12396936B2, “Antimicrobial composition for tackling malodour” (Conopco, Inc., priority 2020, dated 2025)

Tested on: S. hominis ATCC 27844
Test: Malodour assay using Lead acetate method (H2S blackening of lead acetate paper, ΔE by reflectometer)
Assay type: cell-based
Conditions: active wt % as printed per example; TSB with 0.1% L-cysteine-HCl, 37° C. overnight, triplicates; calculated from ΔE; control = 100
Procedure: The actives as shown in Table—1 below were subjected to malodour reduction assay as described below: • Malodour assay using Lead acetate method: Preparation of Bacterial Culture:
The test organisms was grown on TSA (Tryptic Soya Agar) plates overnight (22±2 hr). The organism was not more than 3 passages removed from the original source. The cell number was adjusted by re-suspending it in a suitable amount of physiological saline sufficient to achieve the required cell number based on optical density of the cells. The optical density (OD at 620 nm) of the cells were standardized to the cell number for the test organism using a spectrophotometer. A minimum final suspension of 1.0×10^8 CFU/mL was achieved by adjusting the OD to 0.2 in saline for the malodour assay.
A 1% Lead acetate solution was made in distilled water. […]
The malodour assay was adapted from the method of Moore et al, 2003 and modified into a 96 well plate format. […] The intensity of the colour was recorded using a reflectometer as L*a*b* values.
The difference between the initial and final L*a*b* values ΔE, was used to quantify malodour formation.) ΔE=√{square root over ((Li−Lf)^2+(ai−af)^2+(bi−bf)^2)}
The percentage malodour was calculated from ΔE measured using the above assay for the various actives or combinations.

## CCCCCCc1ccc(O)cc1O [B, Hexyl resorcinol]
  Malodour generation (%): 96%
